Laboratory results as given in PubChem BioAssay (NCI).
Several values for one entry are separate records, joined by “and”; a condition that tells them apart may be missing. Equal values may be shown once.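 The compound was tested at five concentrations on cells cultured in 96-well plates, with a 48-hour exposure period. GI50 is the concentration that inhibits growth by half. TGI: concentration producing complete growth inhibition.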

Tests used:
Assay in all cases: NCI tumour cell line growth inhibition, 48 h
[1] = test system: 786-0 renal
[2] = test system: CAKI-1 renal
[3] = test system: CCRF-CEM leukemia
[4] = test system: HOP-92 NSCLC
[5] = test system: HS 578T breast
[6] = test system: MDA-MB-231 breast
[7] = test system: SK-MEL-28 melanoma
[8] = test system: SNB-75 CNS
[9] = test system: U251 CNS
[10] = test system: RPMI-8226 leukemia

Row | SMILES | TGI [1] | TGI [2] | TGI [3] [µM] | TGI [4] [µM] | TGI [5] | TGI [6] | TGI [7] | TGI [8] | TGI [9] [µM] | TGI [10] [µM] | GI50 [3] [µM] | GI50 [5] [µM] | GI50 [7] [µM] | GI50 [8] [µM]
1 | COC(=O)CC1C2CC3C(C2=O)C13 (stereo not drawn) | > 100 µM | > 100 µM | > 100 | > 100 | > 100 µM | > 100 µM | > 100 µM | > 100 µM | > 100 |  |  |  |  | 
2 | COc1cccc(/C=C/C2=NN(c3cccc(S(=O)(=O)O)c3)C3(C2)SCC(=O)N3c2nc3ccccc3s2)c1 (stereo not drawn) | 43.1 µM | > 100 µM | 88.3 | > 100 | > 100 µM | > 100 µM | > 100 µM | > 100 µM | > 100 | 52.4 |  |  |  | 
3 | CN(C)CCOc1ccc(-c2c(Oc3ccc(Cl)cc3)c(=O)oc3ccccc23)cc1 | > 27.9 µM | 39.6 µM | > 29 | > 39.4 | 24.8 µM | 22.4 µM |  | 25.3 µM | > 32.9 | 43.6 |  |  |  | 
4 | O=C(CSC1=NCCN1)c1ccccc1 | > 100 µM | > 100 µM |  | > 100 | > 100 µM | > 100 µM | > 100 µM | > 100 µM | > 100 | > 100 |  |  |  | 
5 | Nc1cc(CO)cc(Nc2c3ccccc3nc3occc23)c1 | 77.4 µM | 94.9 µM | > 100 | > 100 | 83.8 µM | > 100 µM | 72.4 µM |  | > 100 | > 100 |  |  |  | 
6 | COc1ccc2nc3c([N+](=O)[O-])ccc4c3c(c2c1)NCCN4C | 3.37 µM | 9.13 µM | > 100 | 6.44 | 5.21 µM | 3.01 µM | 6.5 µM |  | 13.4 |  |  |  |  | 
7 | CN(C)Cc1cc(C(=O)O)cc(CN(C)C)c1O | > 100 µM | > 100 µM | > 100 | > 100 | > 100 µM | > 100 µM | > 100 µM | > 100 µM | > 100 | > 100 |  |  |  | 
8 | Cc1nnc2c3c(-c4ccccc4)c(-c4ccccc4)oc3nc(N(C)C)n12 | > 100 µM | > 100 µM | > 100 | > 100 | > 100 µM | > 100 µM | > 100 µM | 72.4 µM | > 100 | 82.3 |  |  |  | 
9 | CC1CC[C@]2(C(=O)O)CCC3(C)C(=C2[C@H]1C)C=CC1[C@@]2(C)CC[C@H](O)C(C)(C)C2CC[C@]13C (stereo partly drawn) | > 100 µM | 84.1 µM | > 100 | 43.9 | > 100 µM | 70 µM | 98.4 µM | 73.1 µM | 97.7 | > 100 |  |  |  | 
10 | CC(NC(=O)c1ccc(OP(=O)(OCC2=CC(=O)c3ccccc3C2=O)N(C)CCCCCl)cc1)c1ccc(OCC2CCCCC2)c(C(N)=O)c1 (stereo not drawn) | 28.6 µM | 35.5 µM | 30.6 | 19.6 | 21.7 µM | 21.3 µM | 27.2 µM | 19.5 µM | 22.3 | 30.6 |  |  |  | 
11 | CCCCCc1c(CCCC)c(=O)[nH]c2cc(CNCC(OC)OC)ccc12 | 18.1 µM | 24.6 µM | 19.2 | 16.5 | 38.7 µM | 29.3 µM | 12.2 µM | 29.3 µM | 23.9 | 13.8 |  |  |  | 
12 | CC1=C(C#N)S(=O)(=O)c2c(oc(C)c2C)N1 | > 100 µM | > 100 µM |  | > 100 | > 100 µM | > 100 µM | > 100 µM | > 100 µM | > 100 | > 100 |  |  |  | 
13 | C/C(=N/O)c1cccc(Nc2nc3ccccc3c3[nH]c4ccccc4c23)c1 | 6.96 µM | 6.89 µM | > 100 | 6.95 | 21.4 µM | 11.5 µM | 12.4 µM | 6.95 µM | 11.5 |  |  |  |  | 
14 | O=[N+]([O-])C(=C(NCc1ccccc1)NCc1ccccc1)C(Cl)=C(Cl)Cl | > 100 µM | 55.6 µM | 50.7 | > 100 | > 100 µM | 81.2 µM | > 100 µM | 43.5 µM |  | 68.4 |  |  |  | 
15 | Fc1cccc2nc(-c3ccccc3)cc(OCc3ccccc3)c12 | > 100 µM |  | > 100 |  | > 100 µM | > 100 µM | > 100 µM | > 100 µM | > 100 | > 100 |  |  |  | 
16 | CC1(C)C2CCC1C(=O)C(C=O)C2 (stereo not drawn) | > 100 µM | > 100 µM | > 100 |  | > 100 µM | > 100 µM | > 100 µM | > 100 µM | > 100 | > 100 |  |  |  | 
17 | N#CC(c1ccccc1)c1cccc2ccccc12 (stereo not drawn) | > 100 µM | 52.1 µM |  |  | > 100 µM | > 100 µM | > 100 µM | > 100 µM | > 100 | 67.9 |  |  |  | 
18 | O=C1CSC2(CCN(CCCN3c4ccccc4Sc4ccc(Cl)cc43)CC2)N1 | 23.2 µM | 25 µM |  | 20.3 | 51.9 µM | 18.8 µM | 28.9 µM | 20.1 µM | 20.6 | 18.3 |  |  |  | 
19 | COC1C(O)=C2C(=O)OC(C)(O)/C=C/C=C\C=C/C=C/C(c3ccccc3)NC(=O)/C=C/C=C/C=C/C=C/C2(C)C1O (stereo not drawn) | 0.0234 µM and 0.0419 µM | 0.125 µM and 0.0222 µM |  | 0.00909 | 0.192 µM and 0.246 µM | 0.105 µM and 0.0133 µM | 0.175 µM and 0.927 µM | 0.131 µM and 0.0786 µM | 0.0382 |  | < 0.001 | 0.0115 | 0.257 | 0.0145
20 | CC(C)n1c(=O)c2nn3c(=O)n(C(C)C)c(=O)c3nn2c1=O | > 100 µM | > 100 µM | > 100 | > 100 | > 100 µM | > 100 µM | > 100 µM |  |  |  |  |  |  | 
21 | COc1cccc(-c2cc(=O)c3cc(C)cnc3[nH]2)c1 | > 25.3 µM | > 100 µM | > 100 |  | > 100 µM | > 100 µM | > 100 µM |  | > 100 | 29.6 |  |  |  | 
22 | C=C1CCCCCCCCCCC1S(=O)c1ccccc1 (stereo not drawn) | 38.2 µM | > 100 µM |  | > 100 | > 100 µM | 75.3 µM | > 100 µM |  | 53.2 | 54.4 |  |  |  | 
23 | CC(=O)O[C@H]1/C(=C/c2ccc(N(C)C)cc2)C[C@H]2[C@@H]3CC=C4C[C@@H](N5CCCC5)CC[C@]4(C)[C@H]3CC[C@]12C | > 100 µM |  |  | > 100 | > 100 µM | > 100 µM | > 100 µM | > 100 µM | > 100 | > 100 |  |  |  | 
